Test results from PubChem BioAssay AID248 (DTP/NCI, 2004).
Several values for one entry are separate records, joined by “and”; a condition that tells them apart may be missing. Identical values can stand only once. Inconclusive results and toxic doses are left out.

System: L1210 leukemia ip in BDF1 mice, survival T/C
Test: NCI In Vivo Anticancer Drug Screen. Data for tumor model L1210 Leukemia (intraperitoneal) in B6D2F1 (BDF1) mice
Details: endpoint: mean survival time, higher = longer survival
Summary of the method: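 Transplanted-tumor mice were given test agent; controls received vehicle only. Survival readings from the two groups were divided (treated over control).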

[1] = dose: 100.0 mg/kg/injection, schedule: Q01DX009 (ip), vehicle: Klucel (hydroxypropylcellulose) (HPC)
[2] = dose: 100.0 mg/kg/injection, schedule: Q04DX003 (ip), vehicle: Klucel (hydroxypropylcellulose) (HPC)
[3] = dose: 200.0 mg/kg/injection, schedule: Q01DX009 (ip), vehicle: Klucel (hydroxypropylcellulose) (HPC)
[4] = dose: 200.0 mg/kg/injection, schedule: Q04DX003 (ip), vehicle: Klucel (hydroxypropylcellulose) (HPC)
[5] = dose: 400.0 mg/kg/injection, schedule: Q01DX009 (ip), vehicle: Klucel (hydroxypropylcellulose) (HPC)
[6] = dose: 400.0 mg/kg/injection, schedule: Q04DX003 (ip), vehicle: Klucel (hydroxypropylcellulose) (HPC)
[7] = dose: 100.0 mg/kg/injection, schedule: Q01DX001 (ip), vehicle: saline
[8] = dose: 200.0 mg/kg/injection, schedule: Q01DX001 (ip), vehicle: saline
[9] = dose: 100.0 mg/kg/injection, schedule: Q01DX009 (ip), vehicle: saline with Tween-80
[10] = dose: 200.0 mg/kg/injection, schedule: Q01DX009 (ip), vehicle: saline with Tween-80
[11] = dose: 100.0 mg/kg/injection, schedule: Q04DX003 (ip), vehicle: saline with Tween-80
[12] = dose: 200.0 mg/kg/injection, schedule: Q04DX003 (ip), vehicle: saline with Tween-80
[13] = dose: 100.0 mg/kg/injection, schedule: Q01DX009 (ip), vehicle: saline
[14] = dose: 200.0 mg/kg/injection, schedule: Q01DX009 (ip), vehicle: saline

CC1=CCC2C(=O)C=CC(=O)C2C1 (stereo unspecified)
T/C (dose: 5.0 mg/kg/injection, schedule: Q01DX009 (ip), vehicle: Klucel (hydroxypropylcellulose) (HPC)): 98 % of control | T/C (dose: 10.0 mg/kg/injection, schedule: Q01DX001 (ip), vehicle: carboxymethylcellulose (CMC)): 107 % of control | T/C (dose: 10.0 mg/kg/injection, schedule: Q01DX009 (ip), vehicle: Klucel (hydroxypropylcellulose) (HPC)): 89 % of control | T/C (dose: 20.0 mg/kg/injection, schedule: Q01DX001 (ip), vehicle: carboxymethylcellulose (CMC)): 109 % of control | T/C (dose: 20.0 mg/kg/injection, schedule: Q01DX009 (ip), vehicle: Klucel (hydroxypropylcellulose) (HPC)): 96 % of control | T/C (dose: 40.0 mg/kg/injection, schedule: Q01DX001 (ip), vehicle: carboxymethylcellulose (CMC)): 107 % of control | T/C (dose: 80.0 mg/kg/injection, schedule: Q01DX001 (ip), vehicle: carboxymethylcellulose (CMC)): 109 % of control

Oc1ccc(C2CCc3ccccc32)cc1 (stereo unspecified)
T/C [1]: 100 % of control | T/C [2]: 95 % of control | T/C [3]: 104 % of control | T/C [4]: 100 % of control | T/C [5]: 95 % of control | T/C [6]: 93 % of control

CCCCC(=O)N/N=C\c1ccc(-c2ccccc2)cc1
T/C [7]: 93 % of control | T/C [8]: 96 % of control

COc1ccc(/C=N/NC(=O)CNC(=O)c2ccc(Cl)cc2Cl)cc1OC
T/C (dose: 50.0 mg/kg/injection, schedule: Q01DX009 (ip), vehicle: saline with Tween-80): 91 % of control | T/C [9]: 86 % of control | T/C [10]: 86 % of control

CSc1cc(C)c(OC(=O)Nc2c(C)cccc2C)c(CO)c1
T/C [11]: 86 % of control | T/C [12]: 90 % of control

NNC(N)=S
T/C (dose: 3.13 mg/kg/injection, schedule: Q04DX003 (ip), vehicle: saline): 109 % of control | T/C (dose: 6.25 mg/kg/injection, schedule: Q04DX003 (ip), vehicle: saline): 104 % of control and 103 % of control | T/C (dose: 12.5 mg/kg/injection, schedule: Q04DX003 (ip), vehicle: saline): 97 % of control and 100 % of control

CN(C)C(=O)c1ccc(NC(=O)N(CCCl)N=O)cc1
T/C (dose: 0.5 mg/kg/injection, schedule: Q01DX001 (ip), vehicle: other): 102 % of control | T/C (dose: 1.0 mg/kg/injection, schedule: Q01DX001 (ip), vehicle: other): 120 % of control | T/C (dose: 2.0 mg/kg/injection, schedule: Q01DX001 (ip), vehicle: other): 150 % of control | T/C (dose: 8.0 mg/kg/injection, schedule: Q01DX001 (ip), vehicle: other): 182 % of control | T/C (dose: 16.0 mg/kg/injection, schedule: Q01DX001 (ip), vehicle: other): 286 % of control | T/C (dose: 31.0 mg/kg/injection, schedule: Q01DX001 (ip), vehicle: other): 88 % of control

COC(=O)C1(C(=O)OC)C2CC(C)=C(C)CC21 (stereo unspecified)
T/C (dose: 25.0 mg/kg/injection, schedule: Q01DX009 (ip), vehicle: saline): 109 % of control | T/C (dose: 50.0 mg/kg/injection, schedule: Q01DX009 (ip), vehicle: saline): 93 % of control | T/C (dose: 100.0 mg/kg/injection, schedule: Q01DX009 (ip), vehicle: acetone): 90 % of control | T/C [13]: 104 % of control | T/C (dose: 200.0 mg/kg/injection, schedule: Q01DX009 (ip), vehicle: acetone): 94 % of control | T/C (dose: 400.0 mg/kg/injection, schedule: Q01DX009 (ip), vehicle: acetone): 87 % of control

Cc1cc(=O)[nH]c(O)c1C(=O)/C=C/c1ccccc1
T/C [7]: 96 % of control | T/C [8]: 102 % of control

CCCC(C)c1c(N)nc(N)[nH]c1=O (stereo unspecified)
T/C (dose: 80.0 mg/kg/injection, schedule: Q01DX001 (ip), vehicle: Klucel (hydroxypropylcellulose) (HPC)): 103 % of control | T/C (dose: 160.0 mg/kg/injection, schedule: Q01DX001 (ip), vehicle: Klucel (hydroxypropylcellulose) (HPC)): 92 % of control | T/C (dose: 320.0 mg/kg/injection, schedule: Q01DX001 (ip), vehicle: Klucel (hydroxypropylcellulose) (HPC)): 94 % of control

CCCCCCCCCC[Si](C)(C)C
T/C [7]: 100 % of control | T/C [8]: 97 % of control | T/C (dose: 400.0 mg/kg/injection, schedule: Q01DX001 (ip), vehicle: saline): 100 % of control

CCOc1ccc(/C=N/NC(=O)C(O)c2ccccc2)cc1OC (stereo unspecified)
T/C [9]: 97 % of control | T/C [10]: 92 % of control | T/C (dose: 400.0 mg/kg/injection, schedule: Q01DX009 (ip), vehicle: saline with Tween-80): 90 % of control

CC(C)(C)C(=O)CC(=O)C(C)(C)C.CC(C)(C)C(=O)CC(=O)C(C)(C)C.CC(C)(C)C(=O)CC(=O)C(C)(C)C.[Yb]
T/C (dose: 100.0 mg/kg/injection, schedule: Q01DX005 (ip), vehicle: Klucel (hydroxypropylcellulose) (HPC)): 97 % of control | T/C [1]: 97 % of control | T/C (dose: 100.0 mg/kg/injection, schedule: Q04DX002 (ip), vehicle: Klucel (hydroxypropylcellulose) (HPC)): 96 % of control | T/C (dose: 200.0 mg/kg/injection, schedule: Q01DX005 (ip), vehicle: Klucel (hydroxypropylcellulose) (HPC)): 105 % of control | T/C [3]: 97 % of control | T/C (dose: 200.0 mg/kg/injection, schedule: Q04DX002 (ip), vehicle: Klucel (hydroxypropylcellulose) (HPC)): 107 % of control | T/C (dose: 400.0 mg/kg/injection, schedule: Q01DX005 (ip), vehicle: Klucel (hydroxypropylcellulose) (HPC)): 101 % of control | T/C [5]: 97 % of control | T/C (dose: 400.0 mg/kg/injection, schedule: Q04DX002 (ip), vehicle: Klucel (hydroxypropylcellulose) (HPC)): 96 % of control

CCNCCC#N
T/C [13]: 111 % of control | T/C [2]: 108 % of control | T/C [14]: 107 % of control | T/C [4]: 107 % of control | T/C [6]: 111 % of control

O=CNn1cn[nH]c1=S
T/C (dose: 100.0 mg/kg/injection, schedule: Q01DX001 (ip), vehicle: carboxymethylcellulose (CMC)): 95 % of control | T/C (dose: 200.0 mg/kg/injection, schedule: Q01DX001 (ip), vehicle: carboxymethylcellulose (CMC)): 98 % of control | T/C (dose: 400.0 mg/kg/injection, schedule: Q01DX001 (ip), vehicle: carboxymethylcellulose (CMC)): 95 % of control

O=C1NC(=O)C(O)(O)C(=O)N1
T/C [13]: 104 % of control | T/C [14]: 93 % of control

Cc1ncc(CO)c(CO)c1O
T/C (dose: 100.0 mg/kg/injection, schedule: Q04DX003 (ip), vehicle: saline): 101 % of control | T/C (dose: 200.0 mg/kg/injection, schedule: Q04DX003 (ip), vehicle: saline): 100 % of control | T/C (dose: 400.0 mg/kg/injection, schedule: Q04DX003 (ip), vehicle: saline): 96 % of control

CC(C)CC1(C(C)C)C(=O)NC(=O)NC1=O
T/C (dose: 75.0 mg/kg/injection, schedule: Q01DX001 (ip), vehicle: saline): 89 % of control | T/C (dose: 150.0 mg/kg/injection, schedule: Q01DX001 (ip), vehicle: saline): 98 % of control

O=C1C(CCSc2ccccc2)C(=O)N(c2ccccc2)C1c1ccccc1 (stereo unspecified)
T/C [1]: 93 % of control | T/C [3]: 94 % of control | T/C [5]: 95 % of control

CC(=O)CC(=O)Nc1ccc(N=Nc2ccccc2)cc1
T/C [11]: 93 % of control | T/C [12]: 91 % of control | T/C (dose: 400.0 mg/kg/injection, schedule: Q04DX003 (ip), vehicle: saline with Tween-80): 91 % of control
